Where a name gives a salt, the structure may show the parent alone. Read-outs that look alike come from different tables or passages of the source.
What was measured:
Type in all cases: cell-based, human
[1] = system: dental pulp stem cells (DPSC); assay: NCI-60 sulforhodamine B (SRB) cytotoxicity assay, dental pulp stem cells; conditions: 72 h, read-out: IC50 DPSC
Procedure: (§1) The bioactivities of the synthesized chalcones were assessed on human liver cancer cell lines and on DPSCs with NCI-SRB assay in vitro. DPSCs used to asses the bioactivity of chalcones on untransformed control cells with the potential of hepatic lineage. […] We also included 5-Fluorouracil which is used in clinics for gastrointestinal cancers and Sorafenib. All results were normalized to DMSO negative control measurements. The experiment was performed in triplicate.
Dental pulp stem cells (DPSCs) were isolated from anonymised unidentified healthy intact wisdom tooth. DPSCs were isolated within few hours upon wisdom teeth surgery from patients above 18 years old. All were informed about the procedures, and their consents were obtained. Teeth were broken carefully in order to reach the dental pulp area. […] Then, the cells were seeded onto flasks in 10ml DMEM-F12 media (Lonza) supplemented with 1% penicillin/streptomycin solution (Hyclone) and 15% FBS (Fetal Bovine Serum,Hyclone, Logan, UT, USA) and cultured in a 5% CO2 incubator at 37^∘C .
(§2) Primary liver cancer cells Huh7, HepG2, Hep3B, Mahlavu, FOCUS, Snu475 along with hepatic progenitor Dental pulp stem cells were seeded into 96-well plates (1,000–3,000 HCC cell/well and 10,000 cells DPSC/well ) for 24 h. The cells were then treated with increasing concentrations of the chalcones ( 2.5-40μM ). DMSO (AppliChem Biochemica, Darmstadt, Germany) was used as negative control. The growth has stopped at the end of 72 h by fixing cold with 10% (v/v) trichloroacetic acid (Merck, Schuchardt, Germany). Cells were then stained with 0.4% (m/v) of sulforhodamine (Sigma-Aldrich, St. Louis, USA) in 1% acetic acid solution. […] All experiments were done in triplicate.

SNU475 = assay: NCI-60 sulforhodamine B (SRB) cytotoxicity assay, SNU475; conditions: read-out: IC50 SNU475
Procedure: as §1
(§3) Well differentiated human primary liver cancer cell lines Huh7, HepG2 and Hep3B, and poorly differentiated Mahlavu, FOCUS and SNU475 HCC cells were cultured in Dulbecco’s Modified Eagle’s Standard (DMEM) medium supplemented with 10% Fetal Bovine Serum (FBS), 100 units/mL penicillin and 100 µg/mL streptomycin (Gibco, Invitrogen, Carlsbad, CA, USA). 0.1 mM nonessential amino acids (NEAA) which are specific to HCC cell lines also added to culture media. Cells were cultured in a 5% CO2 incubator at 37^∘C
as §2

Huh7 = assay: NCI-60 sulforhodamine B (SRB) cytotoxicity assay, Huh7; conditions: read-out: IC50 Huh7
Procedure: as §1, §3
Primary liver cancer cells Huh7, HepG2, Hep3B, Mahlavu, FOCUS, Snu475 along with hepatic progenitor Dental pulp stem cells were seeded into 96-well plates (1,000–3,000 HCC cell/well and 10,000 cells DPSC/well ) for 24 h. The cells were then treated with increasing concentrations of the chalcones ( 2.5-40μM ). DMSO (AppliChem Biochemica, Darmstadt, Germany) was used as negative control. The growth has stopped at the end of 72 h by fixing cold with 10% (v/v) trichloroacetic acid (Merck, Schuchardt, Germany). Cells were then stained with 0.4% (m/v) of sulforhodamine (Sigma-Aldrich, St. Louis, USA) in 1% acetic acid solution. The absorbency values were acquired at 515 nm. All experiments were done in triplicate.

Hep3B = assay: NCI-60 sulforhodamine B (SRB) cytotoxicity assay, Hep3B; conditions: 72 h, read-out: IC50 Hep3B
Procedure: as §1, §3, §2

Mahlavu = assay: NCI-60 sulforhodamine B (SRB) cytotoxicity assay, Mahlavu; conditions: 72 h, read-out: IC50 Mahlavu
Procedure: as §1, §3, §2

FOCUS = assay: NCI-60 sulforhodamine B (SRB) cytotoxicity assay, FOCUS; conditions: 72 h, read-out: IC50 FOCUS
Procedure: as §1, §3, §2

HepG2 = assay: NCI-60 sulforhodamine B (SRB) cytotoxicity assay, HepG2; conditions: read-out: IC50 HepG2
Procedure: as §1, §3, §2

[2] = Homo sapiens, SRB, 2.5–40 μM, triplicate, untransformed control cells
[3] = Homo sapiens, SNU-475, SRB, 72 h, 2.5–40 μM, triplicate
[4] = Homo sapiens, Huh-7, SRB, 72 h, 2.5–40 μM, triplicate
[5] = Homo sapiens, Hep3B, SRB, 2.5–40 μM, triplicate
[6] = Homo sapiens, Mahlavu, SRB, 2.5–40 μM, triplicate
[7] = Homo sapiens, SRB, 2.5–40 μM, triplicate
[8] = Homo sapiens, HepG2, SRB, 72 h, 2.5–40 μM, triplicate
[9] = SRB, 72 h, 2.5–40 μM, triplicate

COc1ccc(/C=C/C(=O)c2ccccc2)cc1 [compound 6]
IC50 ([1]; Homo sapiens): > 40 µM
IC50 (SNU475; Homo sapiens, SNU-475, 72 h): 10 µM
IC50 (Huh7; Homo sapiens, Huh-7, 72 h): 6.4 µM
IC50 (Hep3B; Homo sapiens, Hep3B): 7.8 µM
IC50 (Mahlavu; Homo sapiens, Mahlavu): 6.3 µM
IC50 (FOCUS; Homo sapiens): 6.5 µM
IC50 (HepG2; Homo sapiens, HepG2, 72 h): 7.6 µM

COc1ccc(C(=O)/C=C/c2ccc(Cl)cc2)cc1 [compound 10]
IC50 [1, 2]: > 40 µM
IC50 (SNU475; [3]): 20 µM
IC50 (Huh7; [4]): 11.9 µM
IC50 (Hep3B; [5]): 16.5 µM
IC50 (Mahlavu; [6]): 14.6 µM
IC50 (FOCUS; [7]): 15.9 µM
IC50 (HepG2; [8]): 13.9 µM

O=c1[nH]cc(F)c(=O)[nH]1 [5-Fluorouracil, reference compound]
IC50 [1, 2]: 23.7 µM
IC50 (Huh7; [4]): 30.7 µM
IC50 (Hep3B; [5]): 15.2 µM
IC50 (Mahlavu; [6]): 10 µM
IC50 (FOCUS; [7]): 7.7 µM
IC50 (HepG2; [8]): 5 µM

O=c1c(O)c(-c2ccc(O)c(O)c2)oc2cc(O)cc(O)c12 [Quercetin, reference compound]
IC50 [1, 2]: 21.2 µM
IC50 (SNU475; [3]): 11.6 µM
IC50 (Huh7; [4]): 12.5 µM
IC50 (Hep3B; [5]): 21.8 µM
IC50 (Mahlavu; [6]): 11.3 µM
IC50 (FOCUS; [7]): 17.9 µM
IC50 (HepG2; [8]): 8.4 µM

CNC(=O)c1cc(Oc2ccc(NC(=O)Nc3ccc(Cl)c(C(F)(F)F)c3)cc2)ccn1 [Sorafenib, reference compound]
IC50 [1, 2]: 7.1 µM
IC50 (SNU475; [3]): 7.5 µM
IC50 (Huh7; Homo sapiens, Huh-7, 72 h): 1.3 µM
IC50 (Mahlavu; [6]): 7.9 µM
IC50 (HepG2; [8]): 5.6 µM

COc1ccc(C(=O)/C=C/c2ccccc2)cc1 [compound 3]
IC50 [1, 2]: > 40 µM
IC50 (SNU475; [3]): 13.1 µM
IC50 (Huh7; [4]): 6.4 µM
IC50 (Hep3B; [5]): 18 µM
IC50 (Mahlavu; [6]): 9.4 µM
IC50 (FOCUS; [7]): 20 µM
IC50 (HepG2; [8]): 7.6 µM

COc1ccc(/C=C/C(=O)c2cccc([N+](=O)[O-])c2)cc1 [compound 7]
IC50 [1, 2]: > 40 µM
IC50 (SNU475; [3]): > 40 µM
IC50 (Huh7; [4]): > 40 µM
IC50 (Hep3B; [5]): > 40 µM
IC50 (Mahlavu; [6]): 31.1 µM
IC50 (FOCUS; [7]): > 40 µM
IC50 (HepG2; [8]): > 40 µM

Oc1cc(O)c2c(c1)O[C@H](c1ccc(O)c(O)c1)[C@@H](O)C2 [Catechin hydrate, reference compound]
IC50 ([1]; SRB, 2.5–40 μM, triplicate, untransformed control cells): > 40 µM
IC50 (SNU475; [9]): > 40 µM
IC50 (Huh7; [9]): > 40 µM
IC50 (Hep3B; SRB, 2.5–40 μM, triplicate): > 40 µM
IC50 (Mahlavu; SRB, 2.5–40 μM, triplicate): > 40 µM
IC50 (FOCUS; SRB, 2.5–40 μM, triplicate): > 40 µM
IC50 (HepG2; [9]): > 40 µM

O=C(/C=C/c1cccc([N+](=O)[O-])c1)c1ccccc1 [compound 4]
IC50 [1, 2]: > 40 µM
IC50 (SNU475; [3]): 23.8 µM
IC50 (Huh7; [4]): > 40 µM
IC50 (Hep3B; [5]): > 40 µM
IC50 (Mahlavu; [6]): 24.8 µM
IC50 (FOCUS; [7]): > 40 µM
IC50 (HepG2; [8]): > 40 µM

COc1ccc(Cc2nccc3cc(OC)c(OC)cc23)cc1OC [Papaverine hydrochloride, reference compound]
IC50 [1, 2]: > 40 µM
IC50 (SNU475; [3]): 17.8 µM
IC50 (Huh7; Homo sapiens, Huh-7, 72 h): 8.5 µM
IC50 (Hep3B; [5]): 20.4 µM
IC50 (Mahlavu; [6]): > 40 µM
IC50 (FOCUS; [7]): 1.7 µM
IC50 (HepG2; [8]): 4.9 µM

COc1ccc(/C=C/C(=O)c2ccc(OC)cc2)cc1 [compound 8]
IC50 [1, 2]: > 40 µM
IC50 (SNU475; [3]): 21.6 µM
IC50 (Huh7; [4]): 17.9 µM
IC50 (Hep3B; [5]): 22.1 µM
IC50 (Mahlavu; [6]): 17.3 µM
IC50 (FOCUS; [7]): 21.5 µM
IC50 (HepG2; [8]): 26 µM
